Data on 19 compounds can be found in patent US8916702B2 (priority 2012, dated 2014).

The test system of one test is HCV pseudoparticles (genotype 1a HCV E1 and E2 envelope, H77C isolate). The experiment in a line: microbe, parasite or virus in culture. The class given is cell-based. The conditions noted are these: Hepatitis C virus, Huh-7, 48 h, HCV pseudoparticle infection of Huh7 cells, luciferase 2 days after infection; average of duplicates.
The term EC50 denotes the midpoint of the concentration-response curve. Consider `CC(C)(CNC(=O)C(=O)Nc1cccc(CCC(=O)O)c1)CNC(=O)c1ccc(Nc2nc(NC3(c4ccc(Cl)cc4)CC3)nc(OCC(F)(F)F)n2)cc1` [Compound 1482], for which a half-maximal effect (EC50) was put at 0.17 nM.

As to `COC(=O)[C@H](CCNC(=O)C(=O)Nc1cc(F)c(F)c(F)c1)NC(=O)c1ccc(Nc2nc(NC3(c4ccc(Cl)cc4)CC3)nc(OCC(F)(F)F)n2)cc1` [Compound 1504], the EC50 is under 2.54 nM.

The test is the same for the next values; noted with them: Hepatitis C virus, Huh-7, 48 h, read-out: Activity (EC50 class), HCV pseudoparticle infection of Huh7 cells, luciferase 2 days after infection; EC50 expressed as class A/B.
As for `CC(C)(CNC(=O)C(=O)Nc1cccc(CC(=O)O)c1)CNC(=O)c1ccc(Nc2nc(NC3(c4ccc(Cl)cc4)CC3)nc(OCC(F)(F)F)n2)cc1` [Compound 1480], the EC50 lay in the range of 0.01 to 10 nM.

`CC(C)(CNC(=O)C(=O)Nc1ccc(CC(=O)O)cc1)CNC(=O)c1ccc(Nc2nc(NC3(c4ccc(Cl)cc4)CC3)nc(OCC(F)(F)F)n2)cc1` [Compound 1481]: the concentration giving a half-maximal response (EC50) lay within 0.01 to 10 nM.

Turning to `CC(C)(CNC(=O)C(=O)Nc1cccc(CCC(=O)O)c1)CNC(=O)c1ccc(Nc2nc(NC3(c4ccc(Cl)cc4)CC3)nc(OCC(F)(F)F)n2)cc1` [Compound 1482], the 50% effective concentration (EC50) was 0.01 to 10 nM.

As to `CC(C)(CNC(=O)C(=O)Nc1ccc(CCC(=O)O)cc1)CNC(=O)c1ccc(Nc2nc(NC3(c4ccc(Cl)cc4)CC3)nc(OCC(F)(F)F)n2)cc1` [Compound 1483], the EC50 was 0.01 to 10 nM.

In the case of `CC(C)(CNC(=O)C(=O)Nc1cccc(C(=O)O)c1)CNC(=O)c1ccc(Nc2nc(NC3(c4ccc(Cl)cc4)CC3)nc(OCC(F)(F)F)n2)cc1` [Compound 1485], the EC50 is 0.01 to 10 nM.

Consider `CC(C)OC(=O)c1ccc(-c2ccc(NC(=O)C(=O)NCC(C)(C)CNC(=O)c3ccc(Nc4nc(NC5(c6ccc(Cl)cc6)CC5)nc(OCC(F)(F)F)n4)cc3)cc2)cc1` [Compound 1488], for which the EC50 is 0.01 to 10 nM.

On to `CC(C)(CNC(=O)C(=O)Nc1cccc(-c2nn[nH]n2)c1)CNC(=O)c1ccc(Nc2nc(NC3(c4ccc(Cl)cc4)CC3)nc(OCC(F)(F)F)n2)cc1` [Compound 1489], for which the EC50 is 0.01 to 10 nM.

`CC(C)(CNC(=O)C(=O)Nc1ccc(Oc2nn[nH]n2)cc1)CNC(=O)c1ccc(Nc2nc(NC3(c4ccc(Cl)cc4)CC3)nc(OCC(F)(F)F)n2)cc1` [Compound 1490]: the EC50 lay within 0.01 to 10 nM.

With `CC(C)OC(=O)c1cccc(-c2ccc(NC(=O)C(=O)NCC(C)(C)CNC(=O)c3ccc(Nc4nc(NC5(c6ccc(Cl)cc6)CC5)nc(OCC(F)(F)F)n4)cc3)cc2)c1` [Compound 1491], the EC50 lay in the range of 0.01 to 10 nM.

Consider `O=C(NCC1CC1)C(=O)NCC1(CNC(=O)c2ccc(Nc3nc(NC4(c5ccc(Cl)cc5)CC4)nc(OCC(F)(F)F)n3)cc2)CC1` [Compound 1493], for which the EC50 was 0.01 to 10 nM.

Regarding `O=C(Nc1ccc(Oc2nn[nH]n2)cc1)C(=O)NC1CCCC1CNC(=O)c1ccc(Nc2nc(NC3(c4ccc(Cl)cc4)CC3)nc(OCC(F)(F)F)n2)cc1` (stereo not drawn) [Compound 1494], the EC50 lay within 0.01 to 10 nM.

As to `CC(C)(CNC(=O)C(=O)Nc1ccc(-c2nn[nH]n2)cc1)CNC(=O)c1ccc(Nc2nc(NC3(c4ccc(Cl)cc4)CC3)nc(OCC(F)(F)F)n2)cc1` [Compound 1495], the EC50 lay within 0.01 to 10 nM.

`CC(C)(CNC(=O)C(=O)Nc1ccc(O)cc1)CNC(=O)c1ccc(Nc2nc(NCc3ccc(O)cc3)nc(OCC(F)(F)F)n2)cc1` [Compound 1496]: the EC50 was in the range of 0.01 to 10 nM.

For the compound `COC(=O)[C@H](CCNC(=O)C(=O)Nc1cccc(Cl)c1)NC(=O)c1ccc(Nc2nc(NC3(c4ccc(Cl)cc4)CC3)nc(OCC(F)(F)F)n2)cc1` [Compound 1499], the EC50 was 0.01 to 10 nM.

For the compound `O=C(NCC[C@H](NC(=O)c1ccc(Nc2nc(NC3(c4ccc(Cl)cc4)CC3)nc(OCC(F)(F)F)n2)cc1)C(=O)O)C(=O)Nc1cccc(Cl)c1` [Compound 1500], the EC50 was 0.01 to 10 nM.

Consider `COC(=O)[C@H](CCNC(=O)C(=O)Nc1ccc(F)cc1F)NC(=O)c1ccc(Nc2nc(NC3(c4ccc(Cl)cc4)CC3)nc(OCC(F)(F)F)n2)cc1` [Compound 1501], for which the EC50 was in the range of 0.01 to 10 nM.

As to `O=C(NCC[C@H](NC(=O)c1ccc(Nc2nc(NC3(c4ccc(Cl)cc4)CC3)nc(OCC(F)(F)F)n2)cc1)C(=O)O)C(=O)Nc1ccc(F)cc1F` [Compound 1502], the concentration for a half-maximal effect (EC50) fell in the range of 0.01 to 10 nM.

With `COC(=O)[C@H](CCNC(=O)C(=O)Nc1cc(F)ccc1F)NC(=O)c1ccc(Nc2nc(NC3(c4ccc(Cl)cc4)CC3)nc(OCC(F)(F)F)n2)cc1` [Compound 1503], the EC50 lay in the range of 0.01 to 10 nM.

As to `COC(=O)[C@H](CCNC(=O)C(=O)Nc1cc(F)c(F)c(F)c1)NC(=O)c1ccc(Nc2nc(NC3(c4ccc(Cl)cc4)CC3)nc(OCC(F)(F)F)n2)cc1` [Compound 1504], the EC50 is 0.01 to 10 nM.
